Converted amounts (≈) assume the structure as drawn. Read-outs that look alike come from different tables or passages of the source.

We go through eight compounds from paper PMC6410164, “Isolation and Structure-Activity Relationship of Subergorgic Acid and Synthesis of Its Derivatives as Antifouling Agent” (Marine Drugs, 2019).

Data set [1] is described as follows: Toxicity toward larvae in the settlement assay (LC50). Conditions: Balanus amphitrite (barnacle), cyprid larvae, in vivo, other: immersion of larvae in test solution, B. amphitrite larvae, highest concentration tested 25 μg/mL. How it is done: The antifouling activity was examined using cyprids of the barnacle B. amphitrite Darwin according to the method reported previously. Briefly, adults of B. amphitrite, collected from the intertidal zone in Hong Kong, were exposed to air for more than 6 h, and were then placed in a container filled with 0.22 µm filtered seawater (FSW) to release nauplii. The collected nauplii were raised to cyprid stage using the method described by Thiyagarajan et al.. Fresh cyprids were used in the test. Larval settlement assays were examined using 24-well polystyrene plates. […] About 15−20 competent larvae were added to each well containing 1 mL of test solution in triplicate, and wells containing only FSW, DMSO, and larvae served as a control. The plates were incubated at 25 °C for 48 h. The effects of the test samples against biofouling were determined by examining the plates under a microscope to count settled, unsettled, and swimming larvae, and where appropriate, potential toxic effects were recorded. The number of settled larvae was expressed as a percentage of the total number of larvae per well. Three replicates of each treatment were performed. A concentration-response curve was then made and a trend line was constructed for each compound.

Data set [2] relates to B. amphitrite. Conditions: reported by Qi et al. ref 21; cited from earlier work.
Data set [3] concerns B. amphitrite. More on the design: method as in PMID 18075899. The note with it: reported by Qi et al. ref 21; cited from earlier work.
In data set [4] the test system is B. amphitrite. Nature of the data set: Larval settlement (antifouling) assay with cyprids of the barnacle B. amphitrite. Type of data set: in vivo, Balanus amphitrite. Conditions: Amphibalanus amphitrite, 48 h, read-out: EC50 (μg/mL), inhibition of settlement of B. amphitrite. How it is done:
The antifouling activity was examined using cyprids of the barnacle B. amphitrite Darwin according to the method reported previously. Briefly, adults of B. amphitrite, collected from the intertidal zone in Hong Kong, were exposed to air for more than 6 h, and were then placed in a container filled with 0.22 µm filtered seawater (FSW) to release nauplii. The collected nauplii were raised to cyprid stage using the method described by Thiyagarajan et al.. Fresh cyprids were used in the test. Larval settlement assays were examined using 24-well polystyrene plates. The tested samples were first dissolved with small amount of dimethyl sulfoxide (DMSO) and then diluted with FSW to achieve final concentrations at 25.0, 12.5, 6.25, 3.13, 1.57, 0.78, 0.39, 0.19, 0.1, and 0.05 µg/mL. About 15−20 competent larvae were added to each well containing 1 mL of test solution in triplicate, and wells containing only FSW, DMSO, and larvae served as a control. The plates were incubated at 25 °C for 48 h. The effects of the test samples against biofouling were determined by examining the plates under a microscope to count settled, unsettled, and swimming larvae, and where appropriate, potential toxic effects were recorded. The number of settled larvae was expressed as a percentage of the total number of larvae per well. Three replicates of each treatment were performed. A concentration-response curve was then made and a trend line was constructed for each compound. EC50 was calculated as the concentration where 50% of the larval individual was inhibited to settle as compared to the control while LC50 was calculated as the concentration where 50% of the larval population was dead. […] For the purposes of this study, adults of the barnacle B. amphitrite were scraped off from the concrete posts at a pier of Pak Sha Wan, Kowloon, Hong Kong (22°21′45″N, 114°15′35″E), where only limited quantity of B. amphitrite could be collected during the period of our experiment because of the relatively hot weather and artificial disturbing of nearby construction work.

A further data set deals with barnacle larvae. Conditions: cited from earlier work.
In data set [5] the test system is naupliar larvae of several barnacles. Details: method as in PMID 12031437. Conditions: cited from earlier work.
[6] abbreviates: cyprids, 24-well plates, 25 °C, average of triplicate ± SD, highest concentration 25 μg/mL.

In data set [1], `CC1CC(=O)C23C(C)C(C(=O)O)=CC2(C)CCC13` (stereo not drawn) [SA, subergorgic acid] registered a 50% lethal concentration (LC50) at 48 h of more than 25 µg/mL. Moreover, the median lethal concentration (LC50) with B. amphitrite [2] was more than 200 µg/mL. Moreover, in the data set on B. amphitrite [3], the “EC50, settlement of B. amphitrite” value was 1.2 µg/mL. Besides, the EC50 in the data set on B. amphitrite [4] is 1.25 ± 0.14 µg/mL (≈ 5.03 µM).

For the compound `OCc1cc(O)cc(Cl)c1O` [3-chloro-2,5-dihydroxybenzylalcohol], in the data set with barnacle larvae, the “EC50, settlement inhibition against barnacle larvae” value was 3.19 to 3.81 µg/mL.

For `Oc1c(Br)cc(Br)cc1Cc1ccc(Br)cc1Br` [2,4-dibromo-6-(2,4-dibromobenzyl)phenol], the EC50 in the data set on barnacle larvae (read-out: EC50, settlement inhibition against barnacle larvae) is 1260 nM.

In turn, `COC(=O)C1=CC2(C)CCC3C(C)CC(=O)C32C1C` (stereo not drawn) [Compound 1] gave an LC50 at 48 h in data set [1] of more than 25 µg/mL. In addition, in the data set on B. amphitrite [4] (setting [6]), the EC50 was found to be 3.16 ± 0.18 µg/mL (≈ 12 µM).

As for `O=C1O[C@@H](Cc2ccccc2)C(Cc2ccccc2)=C1Cc1ccccc1` [Maculalactone A], in data set [5], the “EC50 against naupliar larvae of several barnacles” value was 1.1 to 5.2 µg/mL.

In the case of `COC(=O)C1=CC2(C)CCC3C(C)CC(O)C32C1C` (stereo not drawn) [Compound 2], the LC50 at 48 h in data set [1] is more than 25 µg/mL. Moreover, the EC50 in the data set with B. amphitrite [4] (setting [6]) stood at 10 ± 0.13 µg/mL (≈ 37.9 µM).

Turning to `CC1CC(=O)C23C1CCC2(C)C1OC1(C(=O)O)C3C` (stereo not drawn) [Compound 4], in data set [1], the 50% lethal concentration (LC50) at 48 h was more than 25 µg/mL. Moreover, the EC50 with B. amphitrite [4] (setting [6]) is more than 25 µg/mL.

As for `CC1CC(O)C23C(C)C(C(=O)O)=CC2(C)CCC13` (stereo not drawn) [Compound 3], in data set [1], the LC50 at 48 h was more than 25 µg/mL. In the data set on B. amphitrite [4] (setting [6]), the EC50 was more than 25 µg/mL.

The term LC50 denotes the concentration that kills 50% of the test population.
